Experiment [1] is described as follows: Inhibitory activity against group II Phospholipase A2 (PLA2) from Vipera russelli russelli venom. Also on record: species or system Daboia russelii russelii.
Experiment [2] can be described thus: Compound (2.5 uM) was tested for edema inducing activity of group II PLA2 (1 ug) was determined in mice footpads. The experiment is classed as functional, Daboia russelii russelii.

In experiment [1], `CCCCc1nc(C2=NOC(CO)C2)c(Cl)[nH]1` (stereo unspecified) showed an IC50 of 152 nM.
Regarding `CCCCc1nc(C2=NOC(CC(=O)OC)C2)c(Cl)[nH]1` (stereo unspecified), the IC50 in experiment [1] was found to be 209 nM.
In experiment [1], `CCCCc1nc(C2=NOC(C(=O)OC)C2)c(Cl)[nH]1` (stereo unspecified) came in with an IC50 of 250 nM.
`CCCCc1nc(C2=NOC(C(=O)Oc3ccccc3)C2)c(Cl)[nH]1` (stereo unspecified) returned an IC50 in experiment [1] of 195 nM.
`CCCCc1nc(C2=NOC(C#N)C2)c(Cl)[nH]1` (stereo unspecified): in experiment [1], the IC50 was 96.4 nM. The Edema ratio in experiment [2] was determined as 120.
Compound `CCCCc1nc(C2=NOC(c3ccccc3)C2)c(Cl)[nH]1` (stereo unspecified) yielded an IC50 in experiment [1] of 142 nM.
For `CCCCc1nc(C2=NOC(C(=O)OCC)C2)c(Cl)[nH]1` (stereo unspecified), it took 86.2 nM to reach half-maximal inhibition in experiment [1] (IC50). In experiment [2], the Edema ratio amounted to 116.
The corresponding values for `C[C@H]1[C@H](C)CC[C@]2(C(=O)O)CC[C@]3(C)C(=CC[C@@H]4[C@@]5(C)CC[C@H](O)C(C)(C)[C@@H]5CC[C@]43C)[C@H]12` [URSOLIC ACID] are 2.5 nM and 102.

The values are drawn from ChEMBL document CHEMBL1146794, “Novel delta2-isoxazolines as group II phospholipase A2 inhibitors” (Bioorg Med Chem Lett, 2004).
